In publication PMC9371267 (PLoS Biology, 2022) one finds Emax data, which are given here for one compound.

The term Emax denotes the greatest response seen or fitted, relative to the assay's reference.

Numbering of substitutions follows the chain as printed.

Format in all cases: cell-based
The target in one test is T1, GALR2 V174^ECL2A mutant (Homo sapiens, UniProt O43603, V174A).
T1 construct: expressed in transfected cells; host or cells: HEK293A
T1 sequence (O43603 1-387 V174A): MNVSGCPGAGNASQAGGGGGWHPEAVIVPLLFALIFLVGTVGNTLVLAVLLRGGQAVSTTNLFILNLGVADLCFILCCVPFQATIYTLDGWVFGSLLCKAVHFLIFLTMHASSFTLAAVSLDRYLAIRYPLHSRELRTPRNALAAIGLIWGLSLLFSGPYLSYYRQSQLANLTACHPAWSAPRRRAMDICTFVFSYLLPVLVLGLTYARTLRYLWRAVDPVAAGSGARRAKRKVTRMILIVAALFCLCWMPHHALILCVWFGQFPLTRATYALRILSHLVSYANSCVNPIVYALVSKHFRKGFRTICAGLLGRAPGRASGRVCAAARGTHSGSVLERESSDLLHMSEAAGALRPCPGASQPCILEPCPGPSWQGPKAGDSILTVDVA
The test can be described thus: NanoBiT-based Gq activation assay, V174^ECL2A. The conditions noted are these: HEK293-A; HEK293A; expression ~WT (1:5); normalized to WT (1:1); mean ± SEM, n = 3; ns p > 0.05 vs expression-matched WT. The protocol: (§1) After an incubation for 1 day, the transfected cells were harvested, pelleted with centrifugation, and suspended in 2 mL of Hank’s balanced saline solution containing 0.01% bovine serum albumin (BSA fatty acid–free grade, SERVA) and 5 mM HEPES (pH 7.4) (assay buffer). The cell suspension was dispensed in a white 96-well plate at a volume of 80 μl per well and mixed with 20 μl of 50 μM coelenterazine (custom-synthesized by Amadis Chemical) diluted in the assay buffer. After 2-h incubation at room temperature, the plate was measured for baseline luminescence (SpectraMax L, Molecular Devices). […] Kinetics data points from 5 min to 10 min were averaged and normalized to the initial count and used as a G-protein activation index. The G-protein activation signals were fitted to a 4-parameter sigmoidal concentration-response curve (GraphPad Prism8), and pEC50 values (negative logarithmic values of EC50 values) and Span values (“Top”–“Bottom”) were obtained. For individual experiments, we calculated Emax by normalizing Span to the WT GALR2 and ΔpEC50 by subtracting pEC50 of the WT GALR2 performed in parallel. We also calculated Emax/EC50 of GALR2 mutants relative to that of GALR2 WT, a dimensionless parameter known as relative intrinsic activity (RAi) and used its log-transformed value (Log RAi) to denote receptor activity.

The target of test [1] is T2, GALR2 R184^5.35×36V mutant (Homo sapiens, UniProt O43603, R184V).
T2 construct: expressed in transfected cells; host or cells: HEK293A
T2 sequence (O43603 1-387 R184V): T1 sequence (O43603 1-387 V174A) with A174V, R184V
The experiment in a line: NanoBiT-based Gq activation assay, R184^5.35×36V. The conditions noted are these: HEK293-A; HEK293A; expression ~WT (1:5); normalized to WT (1:1); mean ± SEM, n = 3; ns p > 0.05 vs expression-matched WT. The protocol: as §1

The target in a further test is T3, GALR2 L266^ECL3A mutant (Homo sapiens, UniProt O43603, L266A).
T3 construct: expressed in transfected cells; host or cells: HEK293A
T3 sequence (O43603 1-387 L266A): T1 sequence (O43603 1-387 V174A) with A174V, L266A
The experiment in a line: NanoBiT-based Gq activation assay, L266^ECL3A. The conditions noted are these: HEK293-A; HEK293A; expression ~WT (1:1); normalized to WT (1:1); mean ± SEM, n = 3; ns p > 0.05 vs expression-matched WT. The protocol: as §1

Another test concerns the target T4, human GALR2 WT (Homo sapiens, UniProt O43603).
T4 construct: expressed in transfected cells; host or cells: HEK293A
T4 sequence (O43603 1-387): T1 sequence (O43603 1-387 V174A) with A174V
The test can be described thus: NanoBiT-based Gq activation assay (Gq-PLCβ association), WT GALR2. The conditions noted are these: HEK293-A, HEK293A, normalized to WT (1:1), mean ± SEM, n = 3. The protocol: as §1

The next test addresses T5, GALR2 F264^ECL3A mutant (Homo sapiens, UniProt O43603, F264A).
T5 construct: expressed in transfected cells; host or cells: HEK293A
T5 sequence (O43603 1-387 F264A): T1 sequence (O43603 1-387 V174A) with A174V, F264A
The experiment in a line: NanoBiT-based Gq activation assay, F264^ECL3A. The conditions noted are these: HEK293-A; HEK293A; expression ~WT (1:1); normalized to WT (1:1); mean ± SEM, n = 3; ns p > 0.05 vs expression-matched WT. The protocol: as §1

Take `CC(C)C[C@H](NC(=O)CNC(=O)[C@H](CC(N)=O)NC(=O)[C@H](CCCCN)NC(=O)[C@H](CC(=O)O)NC(=O)[C@H](CO)NC(=O)[C@H](Cc1ccccc1)NC(=O)[C@H](CO)NC(=O)[C@H](CCCNC(=N)N)NC(=O)[C@H](Cc1c[nH]cn1)NC(=O)[C@H](CC(N)=O)NC(=O)CNC(=O)[C@@H](NC(=O)[C@H](C)NC(=O)[C@H](Cc1c[nH]cn1)NC(=O)[C@@H]1CCCN1C(=O)CNC(=O)[C@H](CC(C)C)NC(=O)[C@H](CC(C)C)NC(=O)[C@H](Cc1ccc(O)cc1)NC(=O)CNC(=O)[C@H](C)NC(=O)[C@H](CO)NC(=O)[C@H](CC(N)=O)NC(=O)[C@H](CC(C)C)NC(=O)[C@@H](NC(=O)[C@H](Cc1c[nH]c2ccccc12)NC(=O)CN)[C@@H](C)O)C(C)C)C(=O)N[C@H](C(=O)N[C@@H](CO)C(=O)O)[C@@H](C)O` [galanin]: the Emax on GALR2 V174^ECL2A mutant worked out at 72.8 ± 11.3%; in test [1], 60 ± 6%; on GALR2 L266^ECL3A mutant it was 90.9 ± 10.5%; at human GALR2 WT (WT (1:5) plasmid), 70.1 ± 8.7%; on human GALR2 WT (WT (1:10) plasmid), 48.3 ± 4.7%; at human GALR2 WT (WT (1:25) plasmid), 27.4 ± 5.1%. Further, the maximum response (Emax) on GALR2 F264^ECL3A mutant was 90.3 ± 2.3%.
